Laboratory results: patent publication US7816522B2, “Triazolone derivatives” (Eisai Co., Ltd., priority 2006, dated 2010)
Structures can show the parent of a compound that is named as a salt.

Each molecule was assayed against T1, human clotting factor VIIa (Homo sapiens, UniProt P08709) (assay: Inhibitory activity against clotting factor VIIa (chromogenic substrate Spectrozyme FVIIa, TF/Factor VIIa enzyme solution)). Settings: human Factor VIIa 5 nmol/L with human TF 10 nmol/L, room temperature 40 minutes, 405 nm.
T1 construct: a human clotting factor VIIa (hereinafter, “Factor VIIa”) purified sample; purchased Enzyme Research Laboratories HFVIIa
T1 sequence (P08709 213-466 limits assumed): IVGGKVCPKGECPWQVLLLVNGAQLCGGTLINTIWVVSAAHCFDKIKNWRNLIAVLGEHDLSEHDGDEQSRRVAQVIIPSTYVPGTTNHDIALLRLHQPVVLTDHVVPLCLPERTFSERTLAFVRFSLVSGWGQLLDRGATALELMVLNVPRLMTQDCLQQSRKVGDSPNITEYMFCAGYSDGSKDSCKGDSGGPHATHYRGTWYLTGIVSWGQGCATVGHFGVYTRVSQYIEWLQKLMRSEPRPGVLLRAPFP
T1 sequence (P08709 61-212 limits assumed): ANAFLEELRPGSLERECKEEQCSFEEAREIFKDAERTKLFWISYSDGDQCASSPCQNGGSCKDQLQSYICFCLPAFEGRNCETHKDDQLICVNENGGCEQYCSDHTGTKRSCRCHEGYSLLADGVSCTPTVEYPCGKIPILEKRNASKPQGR
T1 sequence (P13726 33-295 partner): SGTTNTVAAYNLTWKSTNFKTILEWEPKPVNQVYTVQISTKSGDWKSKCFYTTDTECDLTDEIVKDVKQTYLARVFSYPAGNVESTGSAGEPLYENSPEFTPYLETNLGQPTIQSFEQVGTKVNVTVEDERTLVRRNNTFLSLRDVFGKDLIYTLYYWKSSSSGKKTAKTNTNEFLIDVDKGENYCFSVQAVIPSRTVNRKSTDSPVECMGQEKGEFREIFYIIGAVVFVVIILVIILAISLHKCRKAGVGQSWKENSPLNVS
Assay type: biochemical
In short: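 Human Factor VIIa (5 nmol/L) with human TF (10 nmol/L) in Tris-BSA buffer pH 7.4 containing 15 mmol/L CaCl2 and cephalin, with Spectrozyme FVIIa substrate. Reaction 40 min at room temperature; 4-nitroanilide read at 405 nm. IC50 by non-linear regression over 100 μmol/L–0.1 nmol/L.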

`CCOc1cc(OC)c(F)c(C(Nc2ccc(C(=N)N)cc2)c2nn(-c3cccnn3)c(=O)[nH]2)c1` (racemic) [Example 71, (R) and (S)-4-{[(5-ethoxy-2-fluoro-3-methoxyphenyl)-(5-oxo-1-pyridazin-3-yl-4,5-dihydro-1H-[1,2,4]triazol-3-yl)methyl]amino}benzamidine acetate] and `CCOc1cc(OCCF)cc(C(Nc2ccc(C(=N)N)cc2)c2nn(-c3cccnn3)c(=O)[nH]2)c1` (racemic) [Example 80, (R) and (S)-4-({[3-ethoxy-5-(2-fluoroethoxy)phenyl]-(5-oxo-1-pyridazin-3-yl-4,5-dihydro-1H-[1,2,4]triazol-3-yl)methyl}amino)benzamidine acetate] are within 1.5-fold of each other in IC50: 7.7 nM for the first, 6.8 nM for the second.

Going from `COc1cc(COCCF)cc(C(Nc2ccc(C(=N)N)cc2)c2nn(-c3ncccn3)c(=O)[nH]2)c1` (racemic) [Example 72, (R) and (S)-4-({[3-(2-fluoroethoxymethyl)-5-methoxyphenyl]-(5-oxo-1-pyrimidin-2-yl-4,5-dihydro-1H-[1,2,4]triazol-3-yl)methyl}amino)benzamidine acetate] to `CCc1cc(OCCF)cc(C(Nc2ccc(C(=N)N)cc2)c2nn(-c3ncccn3)c(=O)[nH]2)c1` (racemic) [Example 74, (R) and (S)-4-({[3-ethyl-5-(2-fluoroethoxy)phenyl]-(5-oxo-1-pyrimidin-2-yl-4,5-dihydro-1H-[1,2,4]triazol-3-yl)methyl}amino)benzamidine acetate], the IC50 falls from 10 nM to 3.3 nM (3-fold).

`COCc1cc(OC)cc(C(Nc2ccc(C(=N)N)cc2)c2nn(-c3cccnn3)c(=O)[nH]2)c1` (racemic) [Example 73, (R) and (S)-4-{[(3-methoxy-5-methoxymethylphenyl)-(5-oxo-1-pyridazin-3-yl-4,5-dihydro-1H-[1,2,4]triazol-3-yl)methyl]amino}benzamidine trifluoroacetate] and `COc1cc(C(Nc2ccc(C(=N)N)cc2)c2nn(-c3cccnn3)c(=O)[nH]2)cc(OC)c1OC` (racemic) [Example 88, 4-{[(R) and (S)-(5-oxo-1-pyridazin-3-yl-4,5-dihydro-1H-[1,2,4]triazol-3-yl)-(3,4,5-trimethoxyphenyl)methyl]amino}benzamidine trifluoroacetate] are within 1.5-fold of each other in IC50: 11.2 nM for the first, 8.5 nM for the second.

Compared with `CCc1cc(OC)cc(C(Nc2ccc(C(=N)N)cc2)c2nn(-c3ncccn3)c(=O)[nH]2)c1` (racemic) [Example 75, (R) and (S)-4-{[(3-ethyl-5-methoxyphenyl)-(5-oxo-1-pyrimidin-2-yl-4,5-dihydro-1H-[1,2,4]triazol-3-yl)methyl]amino}benzamidine acetate], `COc1cc(C)cc(C(Nc2ccc(C(=N)N)cc2)c2nn(-c3ncccn3)c(=O)[nH]2)c1` (racemic) [Example 93, 4-{[(R) and (S)-(3-methoxy-5-methylphenyl)-(5-oxo-1-pyrimidin-2-yl-4,5-dihydro-1H-[1,2,4]triazol-3-yl)methyl]amino}benzamidine acetate] is 5.8-fold higher in IC50: 5.2 nM for the first, 30.3 nM for the second. The first is the more potent here.

First: CCc1cc(OCCOC)cc(C(Nc2ccc(C(=N)N)cc2)c2nn(-c3ncccn3)c(=O)[nH]2)c1 (racemic) [Example 76, (R) and (S)-4-({[3-ethyl-5-(2-methoxyethoxy)phenyl]-(5-oxo-1-pyrimidin-2-yl-4,5-dihydro-1H-[1,2,4]triazol-3-yl)methyl}amino)benzamidine trifluoroacetate]
Second: COCCOc1cc(C)cc(C(Nc2ccc(C(=N)N)cc2)c2nn(-c3ncccn3)c(=O)[nH]2)c1 (racemic) [Example 94, 4-{[(R) and (S)-[3-(2-methoxyethoxy)-5-methylphenyl]-(5-oxo-1-pyrimidin-2-yl-4,5-dihydro-1H-[1,2,4]triazol-3-yl)methyl]amino}benzamidine acetate]
The IC50 of the first is 2.4-fold lower: 5.2 nM for the first, 12.7 nM for the second. The first is the more potent here.

Going from `CCOc1cc(OCCF)cc(C(Nc2ccc(C(=N)N)cc2)c2nn(-c3ncccn3)c(=O)[nH]2)c1` (racemic) [Example 78, (R) and (S)-4-({[3-ethoxy-5-(2-fluoroethoxy)phenyl]-(5-oxo-1-pyrimidin-2-yl-4,5-dihydro-1H-[1,2,4]triazol-3-yl)methyl}amino)benzamidine trifluoroacetate] to `CCOc1cc(OCC)cc(C(Nc2ccc(C(=N)N)cc2)c2nn(-c3ncccn3)c(=O)[nH]2)c1` (racemic) [Example 79, (R) and (S)-4-{[(3,5-diethoxyphenyl)-(5-oxo-1-pyrimidin-2-yl-4,5-dihydro-1H-[1,2,4]triazol-3-yl)methyl]amino}benzamidine trifluoroacetate], the IC50 falls from 12.5 nM to 7.6 nM (1.6-fold). The second is the more potent here.

`COc1cc(C(Nc2ccc(C(=N)N)cc2)c2nn(-c3ncccn3)c(=O)[nH]2)ccc1OCCF` (racemic) [Example 81, (R) and (S)-4-({[4-(2-fluoroethoxy)-3-methoxyphenyl]-(5-oxo-1-pyrimidin-2-yl-4,5-dihydro-1H-[1,2,4]triazol-3-yl)methyl}amino)benzamidine acetate] and `CCOc1ccc(F)c(C(Nc2ccc(C(=N)N)cc2)c2nn(-c3ncccn3)c(=O)[nH]2)c1` (racemic) [Example 96, 4-{[(R) and (S)-(5-ethoxy-2-fluorophenyl)-(5-oxo-1-pyrimidin-2-yl-4,5-dihydro-1H-[1,2,4]triazol-3-yl)methyl]amino}benzamidine acetate] are within 1.5-fold of each other in IC50: 18.6 nM for the first, 17 nM for the second.

Compared with `COc1cc(C(Nc2ccc(C(=N)N)cc2)c2nn(-c3ncccn3)c(=O)[nH]2)cc2c1OCC2OC` (racemic) [Example 82, (R) and (S)-4-({(3,7-dimethoxy-2,3-dihydrobenzofuran-5-yl)-(5-oxo-1-pyrimidin-2-yl-4,5-dihydro-1H-[1,2,4]triazol-3-yl)methyl}amino)benzamidine acetate], `COCCOc1cc(OC)cc(C(Nc2ccc(C(=N)N)cc2)c2nn(-c3ncccn3)c(=O)[nH]2)c1F` (racemic) [Example 92, 4-{[(R) and (S)-[2-fluoro-5-methoxy-3-(2-methoxyethoxy)phenyl]-(5-oxo-1-pyrimidin-2-yl-4,5-dihydro-1H-[1,2,4]triazol-3-yl)methyl]amino}benzamidine acetate] is 1.5-fold higher in IC50: 7.5 nM for the first, 11.6 nM for the second.

First: C=CCOc1cc(COC)cc(C(Nc2ccc(C(=N)N)cc2)c2nn(-c3ncccn3)c(=O)[nH]2)c1 (racemic) [Example 85, 4-{[(R) and (S)-(3-allyloxy-5-methoxymethylphenyl)-(5-oxo-1-pyrimidin-2-yl-4,5-dihydro-1H-[1,2,4]triazol-3-yl)methyl]amino}benzamidine acetate]
Second: COc1cc(C(Nc2ccc(C(=N)N)cc2)c2nn(-c3cccnn3)c(=O)[nH]2)cc(OCCF)c1OC (racemic) [Example 89, 4-{[(R) and (S)-[3-(2-fluoroethoxy)-4,5-dimethoxyphenyl]-(5-oxo-1-pyridazin-3-yl-4,5-dihydro-1H-[1,2,4]triazol-3-yl)methyl]amino}benzamidine acetate]
The IC50 of the first is 1.7-fold higher: 15.3 nM for the first, 9.2 nM for the second. The second is the more potent here.

`COc1ccccc1-n1nc(C(Nc2ccc(C(=N)N)cc2)c2cc3c(c(OC)c2)OCOC3)[nH]c1=O` (racemic) [Example 95, 4-({(R) and (S)-(8-methoxy-4H-benzo[1,3]dioxin-6-yl)-[1-(2-methoxyphenyl)-5-oxo-4,5-dihydro-1H-[1,2,4]triazol-3-yl]methyl}amino)benzamidine acetate] was tested, and the IC50 was 1.3 nM.
